Measured values reported in patent US5770595A, “Oxime substituted therapeutic compounds” (Cell Therapeutics, Inc., priority 1994, dated 1998).

Tests used:
human stromal cells = assay: proliferation of human stromal cells stimulated with PDGF; type: cell-based; conditions: 50 ng/ml PDGF-BB
Protocol: Another assay for measuring activity of the inventive compounds involves determining PDGF (platelet derived growth factor) proliferative response using human-derived stromal cells. Human stromal cells are plated (e.g., about 2000 cells per well) in defined media (e.g., 69% McCoy's, 12.5% fetal calf serum, 12.5% horse serum, 1% antibiotics, 1% glutamine, 1% vitamin supplement, 0.8% essential amino acids, 1% sodium pyruvate, 1% sodium bicarbonate, 0.4% non-essential amino acids and 0.36% hydrocortisone). Two to three days later, the stromal cells are starved in serum-free media. Twenty four hours later, the cells are treated with a stimulating agent, such as PDGF-AA, PDGF-BB or basic FGF (fibroblast growth factor) with or without IL-1α or TNF, and tritiated thymidine. Cell proliferation is determined by liquid scintillation counting.
This example illustrates the ability of inventive compounds nos. […] This assay is a model for restenosis and treatment of atherosclerosis and coronary artery disease. Stromal cells were starved in serum-free media for one day and then stimulated with 50 ng/ml PDGF-BB. The drugs were added at the indicated concentrations one hour prior to PDGF stimulation. Tritiated thymidine was added for one day at the time of PDGF stimulation and the cells were harvested and counted by liquid scintillation counting 24 hours later. […]

[1] = tested on: PBMC (peripheral blood mononuclear cells); assay: two-way mixed lymphocyte reaction; type: cell-based, human; conditions: FIG. 1; 6 days culture
Description: Various in vitro assays can be used to measure effects of the inventive compounds to module immune activity and have antitumor activity using a variety of cellular types. For example, a mixed lymphocyte reaction (MLR) provides a valuable screening tool to determine biological activity of each inventive compound. In the MLR, PBMCs (peripheral blood mononuclear cells) are obtained by drawing whole blood from healthy volunteers in a heparinized container and diluted with an equal volume of hanks balanced salt solution (HBSS). This mixture is layered on a sucrose density gradient, such as a Ficoll-Hypaque® gradient (specific gravity 1.08), and centrifuged at 1000×g for 25 minutes at room temperature or cooler. PBMC are obtained from a band at a plasma-Ficoll interface, separated and washed at least twice in a saline solution, such as HBSS. Contaminating red cells are lysed, such as by ACK lysis for 10 min at 37° C., and the PBMCs are washed twice in HBSS. The pellet of purified PBMCs is resuspended in complete medium, such as RPMI 1640 plus 20% human inactivated serum. Proliferative response of PBMC to allogeneic stimulation is determined in a two-way MLR performed in a 96-well microtiter plate. Briefly, approximately 10^5 test purified PBMC cells in 200 μl complete medium are co-cultured with approximately 10^5 autologous (control culture) or allogeneic (stimulated culture) PBMC cells, wherein the allogeneic cells are from HLA disparate individuals. Varying doses of compounds (drug) are added at the time of addition of cells to the microtiter plate. The cultures are incubated for 6 days at 37° C. in a 5% CO2 atmosphere. At the conclusion of the incubation tritiated thymidine is added (for example, 1 μCi/well of 40 to 60 Ci/mmole) and proliferation determined by liquid scintillation. counting.
Example 10 illustrates a mixed lymphocyte reaction of inventive compounds nos. 1521 and 1522 (see above for chemical name and structure). […] Both compounds nos. […]

VCAM in HUVEC cells = assay: cell surface expression of VCAM in HUVEC; type: cell-based, human; conditions: human TNF-α 20 ng/ml, 20 hours; FIG. 11
Protocol: Drug inhibitory activity can also be measured by determining levels of vascular cell adhesion molecule (VCAM) in stimulated cells. Early passage human umbilical vein endothelial cells (HUVEC) (obtained from commercial suppliers such as Cell Systems, Inc. or Clonetics) are cultured in media (e.g., Hepes buffered media, Cell Systems) containing 10% fetal bovine serum, and supplemented with a stimulating agent, such as fibroblast growth factor (acidic FGF, Cell Systems, Inc.) or TNF. The cells are plated into wells of a microtiter plate (e.g., 5×10^4 per well) and allowed to incubate at 37° C. for 72 hrs. The resting cells are removed (e.g., 20-30 min treatment with 0.4% EDTA), washed in media (e.g., phosphate buffered saline plus 0.1% bovine serum albumin with 0.01% sodium azide) and labeled on ice with a monoclonal antibody ("first antibody") recognizing human VCAM (e.g., 1 μg of a murine monoclonal antibody recognizing human VCAM, Genzyme). After 60 min on ice, the cells are washed (preferably twice) with cold wash media and incubated with an antibody that recognizes the first antibody (e.g., 1 μg of goat anti-mouse IgG conjugated with phycoerythrin, CalTag, Inc.). After 30 min on ice, the cells are washed twice and analyzed on a flow cytometer (Coulter Elite®) at appropriate emission and excitation wavelengths (e.g., for phycoerytlrin use excitation at 488 nm and emission at 525 nm).
The cells were stimulated with human TNF-α (20 ng/ml) for 20 hours and then stained for immunofluorescence using a monoclonal antibody recognizing VCAM, followed by a goat anti-mouse antibody conjugated to phycoerythrin. The cells were analyzed for antibody binding using flow cytometry. […] 1521 and 1522 at the indicated drug concentrations.
This example was used to investigate inhibition of vascular cell adhesion molecule (VCAM) expression on HUVEC by inventive compound no. 2525. VCAM expression by endothelial cells is an early event in atherogenesis and multiple sclerosis, among other various autoimmune diseases. FIG. 17, a plot of percent surface expression versus concentration of compound no.

## CC(CCCCn1c(=O)c2c(ncn2C)n(C)c1=O)=NO [Compound no. 1521]
Human stromal cells
  inhibition of proliferation of stromal cells stimulated with PDGF: strongly inhibit proliferation of human stromal cells
[1]
  proliferative response of PBMC to allogeneic stimulation (MLR): showed activity in this immune modulating activity assay procedure
VCAM in HUVEC cells
  inhibition of cell surface expression of VCAM: inhibit cell surface expression of VCAM in HUVEC cells

## CON=C(C)CCCCn1c(=O)c2c(ncn2C)n(C)c1=O [Compound no. 1522]
Human stromal cells
  inhibition of proliferation of stromal cells stimulated with PDGF: strongly inhibit proliferation of human stromal cells
[1]
  proliferative response of PBMC to allogeneic stimulation (MLR): showed activity in this immune modulating activity assay procedure
VCAM in HUVEC cells
  inhibition of cell surface expression of VCAM: inhibit cell surface expression of VCAM in HUVEC cells
